From patent US8586505B2 (SDS Biotech K. K., priority 2009, dated 2013)

How the values were obtained:
Format in all cases: in vivo
Phytophthora infestans = assay: whole plant or invertebrate; conditions: in Solanum lycopersicum, 96 h, read-out: Determination of control effect (preventive value)
[1] = test system: Pseudoperonospora cubensis; assay: Test of examining control effect on Pseudoperonospora cubensis (potted cucumber plants); conditions: 96 h, 10% wettable powder adjusted to 125 ppm, 15 ml/pot sprayed on potted cucumber plants one day before spray inoculation, assessed after 1 day wet chamber and 3 days greenhouse, read-out: Determination of control effect (preventive value) on Pseudoperonospora cubensis
Procedure, shortened: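 Cucumber plants (Sagamihanjiro, 2.5-leaf stage) sprayed with 125 ppm compound solution from 10% wettable powder, 15 ml/pot. One day later, spray-inoculated with P. cubensis conidia (1.0×10^4 cells/ml), kept 1 day at 21° C wet, then 3 days in greenhouse. Preventive value derived from lesion area relative to untreated plants.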

Sphaerotheca fuliginea = assay: Test of examining control effect on Sphaerotheca fuliginea (potted cucumber plants); conditions: Podosphaera fuliginea, 336 h; 10% wettable powder adjusted to 125 ppm, 15 ml/pot sprayed on potted cucumber plants one day before spray inoculation; assessed after 14 days in greenhouse; read-out: Determination of control effect (preventive value) on Sphaerotheca fuliginea
Procedure, shortened: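 Cucumber plants (Sagamihanjiro, 2nd leaf stage) sprayed with 125 ppm compound (from 10% wettable powder), inoculated one day later with S. fuliginea conidia (1.0×10^5 cells/ml); lesion area scored after 14 days in greenhouse. Preventive value vs untreated; ≥60% high, <60% low control.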

Row | Compound | pest or weed control at 125 ppm (Phytophthora infestans) [%] | pest or weed control at 125 µg/mL [1] [%] | pest or weed control at 125 µg/mL (Sphaerotheca fuliginea) [%]
1 | COCc1ccccc1C#CCCNc1ncnc2ccc(-c3ccccc3F)cc12 [compound 334] | 0 to 60 | 60 to 100 | 0 to 60
2 | N#Cc1ccccc1C#CCCNc1ncnc2ccccc12 [compound 102] | 60 to 100 | 60 to 100 | 60 to 100
3 | CC(CC#Cc1ccc(Cl)cc1C(F)(F)F)Nc1ncnc(C(F)(F)F)c1Cl (stereo not drawn) [compound 388] | 0 to 60 | 60 to 100 | 60 to 100
4 | COCc1ccccc1C#CCCNc1ncnc2ccc(C)cc12 [compound 326] | 0 to 60 | 60 to 100 | 60 to 100
5 | Cc1ncnc(NC(C)CC#Cc2ccc(Cl)cc2C(F)(F)F)c1I (stereo not drawn) [compound 386] | 0 to 60 | 60 to 100 | 60 to 100
6 | CC(CC#Cc1ccc(F)cc1C(F)(F)F)Nc1ncnc2cc(F)ccc12 (stereo not drawn) [compound 347] | 0 to 60 | 60 to 100 | 60 to 100
7 | CS(=O)(=O)c1ncnc(NCCC#Cc2ccccc2C(F)(F)F)c1[N+](=O)[O-] [compound 369] | 0 to 60 | 0 to 60 | 0 to 60
8 | FC(F)(F)c1ccccc1C#CCCNc1ncnc2cccc(Cl)c12 [compound 310] | 0 to 60 | 60 to 100 | 60 to 100
9 | N#Cc1cc(F)ccc1C#CCCNc1ncnc2ccccc12 [compound 170] | 60 to 100 | 60 to 100 | 60 to 100
10 | FC(F)c1ccccc1C#CCCNc1ncnc2ccccc12 [compound 100] | 60 to 100 | 60 to 100 | 60 to 100
11 | Fc1cccc2c(NCCC#Cc3ccccc3C(F)(F)F)ncnc12 [compound 306] | 60 to 100 | 60 to 100 | 60 to 100
12 | C(#Cc1csc(-c2cccs2)n1)CCNc1ncnc2sccc12 [compound 79] | 0 to 60 | 60 to 100 | 60 to 100
13 | CC(CC#Cc1ccc(C(F)(F)F)cc1C(F)(F)F)Nc1ncnc2ccccc12 (stereo not drawn) [compound 280] | 0 to 60 | 60 to 100 | 0 to 60
14 | Cc1ccc(F)cc1C#CCCNc1ncnc2ccccc12 [compound 167] | 0 to 60 | 60 to 100 | 60 to 100
15 | COCc1ccccc1C#CCCNc1ncnc2c(C(F)(F)F)cccc12 [compound 323] | 60 to 100 | 60 to 100 | 60 to 100
16 | CC(=O)c1ccc(C#CCCNc2ncnc3ccccc23)cc1 [compound 128] | 60 to 100 | 60 to 100 | 60 to 100
17 | COCc1ccc(Cl)cc1C#CCCNc1ncnc2ccccc12 [compound 143] | 60 to 100 | 60 to 100 | 60 to 100
18 | CC(CC#Cc1ccccc1)Nc1ncnc2sccc12 (stereo not drawn) [compound 229] | 0 to 60 | 60 to 100 | 60 to 100
19 | COCc1cc(C)ccc1C#CCCNc1ncnc2ccccc12 [compound 145] | 60 to 100 | 60 to 100 | 60 to 100
20 | Cc1cccc2c(NC(C)CC#Cc3ccc(Cl)cc3C(F)(F)F)ncnc12 (stereo not drawn) [compound 354] | 0 to 60 | 60 to 100 | 60 to 100
21 | C(#Cc1cscn1)CCNc1ncnc2ccccc12 [compound 210] | 60 to 100 | 60 to 100 | 60 to 100
22 | CSCc1ccccc1C#CCCNc1ncnc2ccccc12 [compound 152] | 0 to 60 | 60 to 100 | 0 to 60
23 | Cc1ccc(C#CCC(C)Nc2ncnc3ccccc23)cc1 (stereo not drawn) [compound 279] | 60 to 100 | 60 to 100 | 60 to 100
24 | CC(CC#Cc1ccc(S(C)(=O)=O)cc1Cl)Nc1ncnc2sccc12 (stereo not drawn) [compound 256] | 60 to 100 | 60 to 100 | 60 to 100
25 | FC(F)(F)c1ccc(C#CCCNc2ncnc3ccccc23)cc1Cl [compound 177] | 60 to 100 | 60 to 100 | 60 to 100

Row | Compound | pest or weed control at 125 ppm (Phytophthora infestans) [%] | pest or weed control at 125 µg/mL [1] [%] | pest or weed control at 125 µg/mL (Sphaerotheca fuliginea) [%]
26 | COc1cccc2c(NC(C)CC#Cc3ccc(Cl)cc3C(F)(F)F)ncnc12 (stereo not drawn) [compound 352] | 0 to 60 | 60 to 100 | 60 to 100
27 | COCc1cccc(C#CCCNc2ncnc3ccccc23)c1 [compound 135] | 0 to 60 | 60 to 100 | 0 to 60
28 | C(#Cc1ccccc1)CCNc1ncnc2[nH]ccc12 [compound 379] | 0 to 60 | 0 to 60 | 60 to 100
29 | O=[N+]([O-])c1c(Cl)ncnc1NCCC#Cc1ccccc1C(F)(F)F [compound 370] | 0 to 60 | 0 to 60 | 0 to 60
30 | COCc1ccccc1C#CCCNc1ncnc2ccc(-c3cccc(F)c3)cc12 [compound 335] | 0 to 60 | 60 to 100 | 0 to 60
31 | COCc1ccc2ccccc2c1C#CCCNc1ncnc2ccccc12 [compound 185] | 0 to 60 | 60 to 100 | 0 to 60
32 | Cn1cc(C#CCCNc2ncnc3ccccc23)ccc1=O [compound 203] | 0 to 60 | 60 to 100 | 0 to 60
33 | CC(CC#Cc1ncccc1C(F)(F)F)Nc1ncnc2sccc12 (stereo not drawn) [compound 264] | 60 to 100 | 60 to 100 | 60 to 100
34 | FC(F)(F)c1ccc(C#CCCNc2ncnc3ccccc23)nc1 [compound 197] | 0 to 60 | 60 to 100 | 60 to 100
35 | CC(CC#Cc1c(Cl)cccc1Cl)Nc1ncnc2sccc12 (stereo not drawn) [compound 251] | 0 to 60 | 60 to 100 | 60 to 100
36 | COCc1ccccc1C#CCCNc1ncnc2ccc(C#N)cc12 [compound 330] | 60 to 100 | 60 to 100 | 0 to 60
37 | CC(CC#Cc1ccc(F)cc1)Nc1ncnc2sccc12 (stereo not drawn) [compound 230] | 60 to 100 | 60 to 100 | 60 to 100
38 | Cc1nc(C#CCC(C)Nc2ncnc3ccccc23)cs1 (stereo not drawn) [compound 292] | 60 to 100 | 60 to 100 | 60 to 100
39 | Clc1ccccc1C#CCCNc1ncnc2ccccc12 [compound 97] | 60 to 100 | 60 to 100 | 60 to 100
40 | Brc1csc(C#CCCNc2ncnc3sccc23)n1 [compound 64] | 0 to 60 | 60 to 100 | 0 to 60
41 | C(#Cc1cccs1)CCNc1ncnc2ccccc12 [compound 204] | 60 to 100 | 60 to 100 | 60 to 100
42 | CC(F)c1ncnc(NCCC#Cc2ccccc2)c1Br (stereo not drawn) [compound 375] | 60 to 100 | 60 to 100 | 60 to 100
43 | CC(F)c1ncnc(NCCC#Cc2ccccc2)c1I (stereo not drawn) [compound 374] | 0 to 60 | 60 to 100 | 60 to 100
44 | Fc1ccccc1C#CCCNc1ncnc2sccc12 [compound 11] | 60 to 100 | 60 to 100 | 60 to 100
45 | Cc1ncnc(NCCC#Cc2ccc(Cl)cc2C(F)(F)F)c1Cl [compound 360] | 0 to 60 | 60 to 100 | 60 to 100
46 | Fc1ccc(Oc2nc(C#CCCNc3ncnc4ccccc34)cs2)cc1 [compound 226] | 60 to 100 | 60 to 100 | 60 to 100
47 | CS(=O)(=O)Cc1ccccc1C#CCCNc1ncnc2ccccc12 [compound 162] | 0 to 60 | 60 to 100 | 0 to 60
48 | COCc1ccccc1C#CCCNc1ncnc2ccccc12 [compound 133] | 60 to 100 | 60 to 100 | 60 to 100
49 | COc1ccc2cc(C#CCCNc3ncnc4ccccc34)ccc2c1 [compound 184] | 60 to 100 | 60 to 100 | 60 to 100
